Measurements from PubChem BioAssay AID1919005 (Molecular Pharmacology Branch, DTP, NCI, 2023).
Values joined by “and” are separate entries in the source; they are usually repeats but may differ in a detail not shown here. Identical values can stand only once.

Test system: 855422-203-R-J1-PDC complex spheroid growth
Test: Anticancer human tumor 855422-203-R-J1-PDC patient-derived bladder carcinoma cell line growth inhibition [AhR]
Details: for viability, T/C: stronger effect = lower value
In short: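 Spheroids combined tumor cells with HUVEC endothelial cells and human MSCs as stroma. AhR antagonists were paired with standard or investigational drugs, each dosed in half-log steps down from near clinical Cmax, or from 10 microM where Cmax was unknown.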

[1] = curve of first compound, second compound 0.1 µM
[2] = curve of first compound, second compound 0.316 µM
[3] = curve of first compound, second compound 1 µM
[4] = curve of first compound, second compound 3.16 µM
[5] = curve of first compound, second compound 10 µM
[6] = second compound 0.1 µM, first compound 0.0316 µM
[7] = second compound 0.1 µM, first compound 0.1 µM
[8] = second compound 0.1 µM, first compound 0.316 µM
[9] = second compound 0.1 µM, first compound 1 µM
[10] = second compound 0.316 µM, first compound 0.0316 µM
[11] = second compound 0.316 µM, first compound 0.1 µM
[12] = second compound 0.316 µM, first compound 0.316 µM
[13] = second compound 0.316 µM, first compound 1 µM
[14] = second compound 1 µM, first compound 0.0316 µM
[15] = second compound 1 µM, first compound 0.1 µM
[16] = second compound 1 µM, first compound 0.316 µM
[17] = second compound 1 µM, first compound 1 µM
[18] = second compound 3.16 µM, first compound 0.0316 µM
[19] = second compound 3.16 µM, first compound 0.1 µM
[20] = second compound 3.16 µM, first compound 0.316 µM
[21] = second compound 3.16 µM, first compound 1 µM
[22] = second compound 10 µM, first compound 0.0316 µM
[23] = second compound 10 µM, first compound 0.1 µM
[24] = second compound 10 µM, first compound 0.316 µM
[25] = second compound 10 µM, first compound 1 µM
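Also: spheroids exposed to agents for seven days before readout.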
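For viability, T/C in this document: percent of DMSO vehicle control luminescence viability.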

Q: How did the IC50 [1] turn out when `CC1COCCN1c1cc(-c2ccnn2C)c2ccnc(-c3ccn[nH]3)c2n1` (configuration not stated) + Cc1cncc(-c2nc(NCCc3c[nH]c4ccccc34)c3ncn(C(C)C)c3n2)c1 was run?
A: Its IC50 is 254 nM.

Q: And the IC50 [2]?
A: The IC50 was 405 nM.

Q: What about the IC50 [3] of the same compound?
A: The IC50 was 361 nM.

Q: What about the IC50 [4] of the same compound?
A: The IC50 was 80.4 nM.

Q: What about the IC50 [5] of the same compound?
A: Its IC50 is < 3.16 nM.

Q: What about the viability, T/C (second compound 0.1 µM, first compound 0.00316 µM) of the same compound?
A: Its viability, T/C is 83.7%.

Q: And the viability, T/C (second compound 0.1 µM, first compound 0.01 µM)?
A: Its viability, T/C is 96.2%.

Q: And the viability, T/C [6]?
A: Its viability, T/C is 93.6%.

Q: And the viability, T/C [7]?
A: The viability, T/C was 97.8%.

Q: And the viability, T/C [8]?
A: The viability, T/C was 39.9%.

Q: And the viability, T/C [9]?
A: Its viability, T/C is 12.7%.

Q: And the viability, T/C (second compound 0.316 µM, first compound 0.00316 µM)?
A: The viability, T/C was 91.3%.

Q: And the viability, T/C (second compound 0.316 µM, first compound 0.01 µM)?
A: The viability, T/C was 91.1%.

Q: What about the viability, T/C [10] of the same compound?
A: Its viability, T/C is 74.9%.

Q: And the viability, T/C [11]?
A: The viability, T/C was 85.6%.

Q: What about the viability, T/C [12] of the same compound?
A: Its viability, T/C is 60.6%.

Q: What about the viability, T/C [13] of the same compound?
A: Its viability, T/C is 11.1%.

Q: What about the viability, T/C (second compound 1 µM, first compound 0.00316 µM) of the same compound?
A: The viability, T/C was 77.2%.

Q: And the viability, T/C (second compound 1 µM, first compound 0.01 µM)?
A: The viability, T/C was 79.9%.

Q: What about the viability, T/C [14] of the same compound?
A: The viability, T/C was 85.5%.

Q: What about the viability, T/C [15] of the same compound?
A: Its viability, T/C is 71.4%.

Q: What about the viability, T/C [16] of the same compound?
A: Its viability, T/C is 55.6%.

Q: And the viability, T/C [17]?
A: The viability, T/C was 10.7%.

Q: And the viability, T/C (second compound 3.16 µM, first compound 0.00316 µM)?
A: The viability, T/C was 75.6%.

Q: And the viability, T/C (second compound 3.16 µM, first compound 0.01 µM)?
A: Its viability, T/C is 77.2%.

Q: What about the viability, T/C [18] of the same compound?
A: The viability, T/C was 63%.

Q: And the viability, T/C [19]?
A: Its viability, T/C is 28.6%.

Q: And the viability, T/C [20]?
A: The viability, T/C was 50.5%.

Q: What about the viability, T/C [21] of the same compound?
A: The viability, T/C was 9.55%.

Q: And the viability, T/C (second compound 10 µM, first compound 0.00316 µM)?
A: Its viability, T/C is 3.1%.

Q: What about the viability, T/C (second compound 10 µM, first compound 0.01 µM) of the same compound?
A: The viability, T/C was 4.56%.

Q: And the viability, T/C [22]?
A: Its viability, T/C is 3.12%.

Q: What about the viability, T/C [23] of the same compound?
A: Its viability, T/C is 6.41%.

Q: And the viability, T/C [24]?
A: Its viability, T/C is 2.62%.

Q: What about the viability, T/C [25] of the same compound?
A: Its viability, T/C is 1.62%.

Q: Which viability, T/C (compound 0.0316 µM) does the source give for `NS(=O)(=O)OCC1CC(n2ccc3c(NC4CCc5ccccc54)ncnc32)CC1O` (configuration not stated) here?
A: The viability, T/C was 99.2% and 99.8% and 104%.

Q: And the viability, T/C (compound 0.1 µM)?
A: The viability, T/C was 113% and 118% and 105%.

Q: What about the viability, T/C (compound 0.316 µM) of the same compound?
A: The viability, T/C was 114% and 130% and 106%.

Q: What about the viability, T/C (compound 1 µM) of the same compound?
A: Its viability, T/C is 91.4% and 97.8% and 66.8%.

Q: And the viability, T/C (compound 3.16 µM)?
A: Its viability, T/C is 35.2% and 53.6% and 26.8%.

Q: What about the viability, T/C (compound 10 µM) of the same compound?
A: Its viability, T/C is 9.55% and 14.4% and 8.49%.

Q: And the IC50 (curve of compound)?
A: The IC50 was 2340 nM and 3420 nM and 1640 nM.

Q: Which results are given for `O=C(c1cc(Cc2n[nH]c(=O)c3ccccc23)ccc1F)N1CCN(C(=O)C2CC2)CC1` + Cc1cncc(-c2nc(NCCc3c[nH]c4ccccc34)c3ncn(C(C)C)c3n2)c1?
A: IC50 [1]: > 10000 nM; IC50 [2]: > 10000 nM; IC50 [3]: > 10000 nM; IC50 [4]: > 10000 nM; IC50 [5]: < 31.6 nM; viability, T/C [6]: 106%; viability, T/C [7]: 102%; viability, T/C [8]: 99.6%; viability, T/C [9]: 103%; viability, T/C (second compound 0.1 µM, first compound 3.16 µM): 108%; viability, T/C (second compound 0.1 µM, first compound 10 µM): 90.9%; viability, T/C [10]: 102%; viability, T/C [11]: 109%; viability, T/C [12]: 101%; viability, T/C [13]: 93.7%; viability, T/C (second compound 0.316 µM, first compound 3.16 µM): 101%; viability, T/C (second compound 0.316 µM, first compound 10 µM): 86.7%; viability, T/C [14]: 98.2%; viability, T/C [15]: 93%; viability, T/C [16]: 103%; viability, T/C [17]: 87.9%; viability, T/C (second compound 1 µM, first compound 3.16 µM): 94.7%; viability, T/C (second compound 1 µM, first compound 10 µM): 89.5%; viability, T/C [18]: 78.6%; viability, T/C [19]: 83.6%; viability, T/C [20]: 75.9%; viability, T/C [21]: 71.2%; viability, T/C (second compound 3.16 µM, first compound 3.16 µM): 89.8%; viability, T/C (second compound 3.16 µM, first compound 10 µM): 78.6%; viability, T/C [22]: 16.8%; viability, T/C [23]: 12.5%; viability, T/C [24]: 7.7%; viability, T/C [25]: 3.22%; viability, T/C (second compound 10 µM, first compound 3.16 µM): 6.34%; viability, T/C (second compound 10 µM, first compound 10 µM): 5.85%
